Data reported in article PMC11183791, “Vancomycin population pharmacokinetics and dosing proposal for the initial treatment in obese adult patients” (Frontiers in Pharmacology, 2024).
Converted amounts (≈) assume the structure as drawn.

Legend:
[1] = cited from earlier work
[2] = tested on: isolated bacterial strain (Staphylococcus spp., Enterococcus spp., Klebsiella pneumoniae, Streptococcus agalactiae); conditions: isolated bacterial strains of the study patients
[3] = Vancomycin trough serum levels after loading dose with and without the guidance of clinical pharmacists (TDM, KIMS immunoturbidimetry); assay type: in vivo, human
Method: The lower limits of detection and quantitation were 1.5 and 4.0 mg/L, respectively, and the measuring range was from 4.0 to 80.0 mg/L. Only levels measured during initial vancomycin therapy (first 3 days of treatment) were included in the PK analysis. If available, the MIC value of vancomycin for the isolated bacterial strain was also recorded.
Vancomycin t1/2 was calculated from Vd and clearance (CL) values using the following formula: t1/2 = 0.693 × Vd/CL. Descriptive parameter medians and interquartile range (IQR) were calculated using MS Excel 2013 (Microsoft Corporation, Redmond, United States). The Mann–Whitney U-test was used to compare vancomycin loading doses (LDs)with and without the guidance of clinical pharmacists and compare trough levels reached after loading dose administration. The linear regression model was used to evaluate the relationships between vancomycin PK parameters (Vd and CL) and continuous variables (BW, LBM, BSA, BMI, creatinine, and cystatin C-based eGFR). GraphPad Prism software version 8.2.1 (GraphPad Inc., La Jolla, CA, USA) was used for all comparisons, and p-levels <0.05 were considered statistically significant.

[4] = bootstrap analysis, 250 replicates
[5] = obese adults (BMI ≥30 kg/m^2), n = 138, iv infusion, first 3 days of treatment, one-compartment model

Compound: CN[C@H](CC(C)C)C(=O)N[C@H]1C(=O)N[C@@H](CC(N)=O)C(=O)N[C@H]2C(=O)N[C@H]3C(=O)N[C@H](C(=O)N[C@H](C(=O)O)c4cc(O)cc(O)c4-c4cc3ccc4O)[C@H](O)c3ccc(c(Cl)c3)Oc3cc2cc(c3O[C@@H]2O[C@H](CO)[C@@H](O)[C@H](O)[C@H]2O[C@H]2C[C@](C)(N)[C@H](O)[C@H](C)O2)Oc2ccc(cc2Cl)[C@H]1O [vancomycin, Vancomycin]
- elimination half-life (t1/2) ([1]; can be prolonged in renal insufficiency, ref Rybak, 2006): 6 to 12 h
- distribution half-life ([1]; ref Matzke et al., 1986): approximately 7 min
- distribution phase duration ([1]; ref Matzke et al., 1986): approximately 0.5 h
- absorption after oral administration ([1]; ref Rybak et al., 2009): not absorbed efficiently
- portion of dose excreted unchanged via glomerular filtration ([1]; ref Rybak, 2006): majority
- contribution of the distribution phase to total vancomycin exposure ([1]; ref Shingde et al., 2019): < 10%
- MIC, median (min–max) [2]: 1 (≤0.5–2) mg/L
- MIC, modus [2]: 1 µg/mL (≈ 0.69 µM)
- CL_pop, bootstrap median (95% CI) [4]: 1.27 (1.24–1.31) L/h
- Vd_pop, bootstrap median (95% CI) [4]: 79.3 (77.8–80.9) L
- β_CL_LBM, bootstrap median (95% CI) [4]: 0.011 (0.0108–0.0113) kg
- β_CL_eGFR, bootstrap median (95% CI) [4]: 0.61 (0.60–0.63) mL/s/1.73 m^2
- CL, median (interquartile range) of individual estimates (conditional modes) [5]: 6.65 (4.95–8.42) L/h
- Vd, median (interquartile range) of individual estimates (conditional modes) [5]: 74.0 (70.5–75.4) L
- elimination half-life t1/2, median (interquartile range) of individual estimates (obese adults, n = 138, t1/2 = 0.693 × Vd/CL): 7.7 (6.0–10.0) h
- t1/2 corresponding to estimated CL and Vd of 75 L (patient with LBM of 68 kg and eGFR of 1.51 mL/s/1.73 m^2): 7.4 h
- CL estimated from the final covariate equation (patient with LBM of 68 kg and eGFR of 1.51 mL/s/1.73 m^2 (median values of the study population)): 7 L/h
- Vd_pop, final model estimate (typical value of parameter, final covariate population PK model, obese adults): 75.0 L
- CL_pop, final model estimate (typical value, CL=CL_pop×e^(β_CL_eGFR×eGFR)×e^(β_CL_LBM×LBM)): 1.32 L/h
- median trough level after LD relative to the recommended therapeutic range (15–20 mg/L) ([3]; LD with the guidance of clinical pharmacists): in
- median trough level after LD relative to the recommended therapeutic range (15–20 mg/L) ([3]; LD without the guidance of clinical pharmacists): out of the recommended therapeutic range
